Drawing on ChEMBL document CHEMBL2034954, “Synthesis and antimycobacterial activity of novel 1,3-dimethylisocyanurate derivatives” (Eur J Med Chem, 2012), this text covers Activity and CFU for four molecules.

Experiment [1] relates to Mycobacterium tuberculosis. Nature of the experiment: Antitubercular activity against multidrug-resistant Mycobacterium tuberculosis clinical isolate at 10 ug/mL by radiometric growth assay. The class given is functional, organism-based.
For experiment [2], the system named is Mycobacterium tuberculosis. Put plainly: Antitubercular activity against multidrug-resistant Mycobacterium tuberculosis clinical isolate at 40 ug/mL by radiometric growth assay. The experiment is classed as functional, organism-based.
The subject of experiment [3] is Mycobacterium tuberculosis. Put plainly: Antitubercular activity against multidrug-resistant Mycobacterium tuberculosis clinical isolate at 80 ug/mL by radiometric growth assay. The class given is functional, organism-based.
Experiment [4] deals with Mycobacterium tuberculosis. Put plainly: Antitubercular activity against multidrug-resistant Mycobacterium tuberculosis clinical isolate at 1 ug/mL by radiometric growth assay. The class given is functional, organism-based.
Experiment [5] relates to Mycobacterium tuberculosis. Nature of the experiment: Antitubercular activity against multidrug-resistant Mycobacterium tuberculosis clinical isolate assessed as number of colonies at 10 ug/mL by radiometric growth assay. The class given is functional.
For experiment [6], the system named is Mycobacterium tuberculosis. Put plainly: Antitubercular activity against multidrug-resistant Mycobacterium tuberculosis clinical isolate assessed as number of colonies at 1 ug/mL by radiometric growth assay. The class given is functional.

Calls of active or inactive are those of the source. The calls are words filed in the database; no cut-off is given here.

With `CC1COc2c(N3CCN(C)CC3)c(F)cc3c(=O)c(C(=O)O)cn1c23` (configuration not stated), the outcome in experiment [1] was inactive. Consider `CO[C@H]1/C=C/O[C@@]2(C)Oc3c(C)c(O)c4c(O)c(c(/C=N/N5CCN(C)CC5)c(O)c4c3C2=O)NC(=O)/C(C)=C\C=C\[C@H](C)[C@H](O)[C@@H](C)[C@@H](O)[C@@H](C)[C@H](OC(C)=O)[C@@H]1C`, for which the result in experiment [2] and in experiment [3] was inactive. With `NNC(=O)c1ccncc1` [ISONIAZID], the outcome in experiment [4] and in experiment [1] was inactive. As for `Cn1c(=O)n(C)c(=O)n(CCCCC[S+]([O-])CC(=O)NN)c1=O` (configuration not stated), the CFU in experiment [5] was found to be 10; in experiment [6], 15.
